What was measured:
[1] = tested on: (LPS)-stimulated human monocyte-derived DCs; assay: CXCL10 induction in LPS-stimulated dendritic cells; format: cell-based; settings: for dose-dependent response of CXCL10 induction: dose response analysis, same assay setup; for CXCL10 induction: supernatants of low dose LPS-stimulated dendritic cells, vs other peptides and negative control peptide
Method: Studies were performed to identify target peptides that induced CXCL10 production. Target peptides identified from human microbiomes from patients that responded to anti-PD-1 therapy were each synthesized and tested for TNF-α, CXCL10, IL6, and INF-γ induction. Fifteen peptides with high CXCL10 induction were identified for additional testing, indicated with asterisks in the figure (FIG. 1). […] Peptide sequences and characteristics can be found in Tables 4-7.
Peptides that bound to specific immune cells (1% of the screened peptides) were then evaluated for activity in cell-based assays using isolated primary human T cells, DCs, and macrophages. Immune-driven inhibition of tumor growth relies on DC-mediated recruitment of effector T cells, mainly via CXCL9 and CXCL10. […] Peptides inducing robust CXCL10 secretion (LPS)-stimulated human monocyte-derived DCs from multiple donors, with a mean induction of >2-fold of CXCL10 over OVA323 339 control peptide in DCs were selected for dose response analysis (n=36). […] To confirm cross species activity, 10 of the 15 peptides with EC50<10 μM were screened in vitro for CXCL10 induction in mouse bone marrow DCs.

RENCA cells = assay: RENCA re-challenge study; format: in vivo, Balb/c mice
Method: Additional studies were performed to test survival and tumor volume responses to a re-challenge event. In one study, mice were allocated into dosing groups when tumors reached ˜100 mm^3. During the initial dosing study, time 0 was the first day of seven days of dosing. […] Re-implantation was completed on day 39 after dosing completion. Treated mice were tumor free for >20 days before being re-challenge. […] Tumor volume and survival was monitored as previously described. In the re-challenge experiment, time 0 is day 10 after re-challenge dosing.

CXCR3 [2] = molecular target: T1, CXCR3 (Homo sapiens, UniProt P49682); assay: SelectScreen agonist/antagonist assay, CXCR3-bla U2OS cells; format: cell-based; design: TEV protease site; Gal4-VP16 transcription factor ('Ga14-VP16' [sic]); Tango cell line; host or cells: Tango GPCR-bla U2OS; settings: for SelectScreen Antagonist Mode: control agonist I-TAC at EC80
T1 sequence (P49682 1-368): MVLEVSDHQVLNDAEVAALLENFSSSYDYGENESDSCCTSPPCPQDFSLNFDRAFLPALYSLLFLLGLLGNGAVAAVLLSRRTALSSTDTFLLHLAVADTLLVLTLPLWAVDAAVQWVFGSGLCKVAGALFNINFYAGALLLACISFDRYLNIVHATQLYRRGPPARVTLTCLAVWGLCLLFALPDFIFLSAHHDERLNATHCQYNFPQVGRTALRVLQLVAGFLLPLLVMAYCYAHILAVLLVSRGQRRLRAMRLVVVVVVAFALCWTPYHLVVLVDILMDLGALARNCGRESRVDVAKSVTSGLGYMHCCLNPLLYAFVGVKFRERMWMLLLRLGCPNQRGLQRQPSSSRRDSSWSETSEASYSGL
Method: In agonist assays, chemokine receptor expressing U2OS cells are thawed and resuspended in Assay Media (DMEM, 1% dialyzed FBS, 25 mM HEPES pH 7.3, 0.1 mM NEAA, 100 U/mL/100 μg/mL Pen/Strep) to a concentration of 312,500 cells/mL. 4 μL of a 10× serial dilution of I-TAC (control agonist starting concentration, 500 nM) or compounds are added to appropriate wells of a 384-well TC-Treated assay plate. 32 μL of cell suspension (10,000 cells) is added to each well. 4 μL of Assay Media is added to all wells to bring the final assay volume to 40 μL. The plate is incubated for 16-24 hours at 37° C./5% CO2 in a humidified incubator. 8 μL of 1 μM Substrate+Solution D Loading Solution is added to each well and the plate is incubated for 2 hours at room temperature. The plate is read on a fluorescence plate reader.
In antagonist assays, CXCR3-bla U2OS cells were thawed and prepared as described above for the Agonist assay. 4 μL of 10× compounds or assay media was added to appropriate wells of a TC-Treated assay plate. 32 μL of cell suspension was added to the wells and pre-incubated at 37° C./5% CO2 in a humidified incubator with compounds and control antagonist titration for 30 minutes. 4 μL of 10× control agonist I-TAC at the pre-determined EC80 concentration is added to wells containing the control antagonist or compounds. The plate is incubated for 16-24 hours at 37° C./5% CO2 in a humidified incubator. 8 μL of 1 μM Substrate+Solution D Loading Solution is added to each well and the plate is incubated for 2 hours at room temperature. The plate is read on a fluorescence plate reader.
(§1) Tango™ CXCR3-bla U2OS cells contain the human chemokine (C-X-C motif) receptor 3 linked to a TEV protease site and a Ga14-VP16 transcription factor stably integrated into the Tango™ GPCR-bla U2OS cell line. This parental cell line stably expresses a beta-arrestin/TEV protease fusion protein and the beta-lactamase reporter gene under the control of a UAS response element. The Tango™ CXCR3-bla U2OS cells have been functionally validated for a response to I-TAC (CXCL11).

CXCR3 [3] = molecular target: T1, CXCR3; assay: Positive allosteric modulator assay method 2 (PAM2), CXCR3-bla U2OS; format: cell-based; design: TEV protease site; Gal4-VP16 transcription factor ('Ga14-VP16' [sic]); Tango cell line; host or cells: Tango GPCR-bla U2OS; settings: varying CXCL11, fixed peptide concentration
Excerpt: as §1
Positive allosteric modulation was confirmed with an additional test method using a dose response setting for CXCL11. In positive allosteric modulator assay method 2 (PAM2), cells were diluted in Assay Media to an appropriate cell density, and were added to the assay plate. CXCR3-bla U2OS were stimulated with varying concentrations of CXCL11 ligand and a pre-determined fixed concentration of either SG-3-00802 or SG-3-06683 and incubated for 30 minutes. Ligand (CXCL9, CXCL10, or CXCL11) was added at increasing concentrations to wells containing the test compound.

[4] = tested on: moDCs and allogeneic T cells; assay: Mixed lymphocyte reaction (MLR) cytokine release; format: cell-based
Method: Twenty-four hours later, T cells isolated from allogeneic donors were added to the moDCs with the peptide of interest, SG-3-00802 or SG-3-05021, alone or in combination with anti-PD-L1 monoclonal antibody. The co-culture of cells was incubated for 72 hours, after which cell supernatants were harvested and analyzed for secretion of cytokines, IFN-g and TNF-α. […] Data shown for experiment conducted in >4 Donor PBMCs.

Sequence | dose-dependent response of CXCL10 induction [1] | CXCL10 induction [1] | rejection of newly implanted tumors (RENCA cells; peptide alone) | percent of mice surviving after re-challenge (RENCA cells; previously dosed in combination with anti-PD-1) | percent of mice surviving after re-challenge (RENCA cells; previously dosed with peptide alone) | # of animals without tumor progression out of re-challenged animals per group (re-challenge study) (RENCA cells; re-challenge study) | rejection of newly implanted tumors (RENCA cells; with anti-PD-1 antibody combinatorial treatment) | SelectScreen Agonist Mode (CXCR3 [2]) | SelectScreen Antagonist Mode (CXCR3 [2]) | activity of CXCL11 on the CXCR3 receptor (PAM2) (CXCR3 [3]) | IFN-γ secretion ([4]; after stimulation with anti-CD40, in combination with anti-PD-L1, 72 hours) | IFN-γ secretion ([4]; after stimulation with anti-CD40, peptide alone, 72 hours)
MKVRPSVKPMCEKCKIIRRKGRVMVICENPKHKQRQG [SG-3-00802] | robust dose-dependent response | high CXCL10 inducers | rejected newly implanted tumors | increased percent of mice surviving | increased percent of mice surviving | 2/2 | rejected newly implanted tumors | weak agonistic activity and No | potent reverse antagonistic activity (sensitization) and PAM | enhanced the activity of the endogenous ligand CXCL11 |  | 
LGKTDWIEKYFKVKKEKIDKMQRFLQG (peptide for immunotherapy; SG-3-05021) | robust dose-dependent response | high CXCL10 inducers |  |  |  |  |  | no agonistic activity and No | reverse antagonistic activity (sensitization) and PAM |  | increase in IFN-γ | increase in IFN-γ

From patent US20240317816A1, “PEPTIDES FOR IMMUNOTHERAPY” (Genevive, Inc., priority 2021, published 2024)
